Measurements as given in paper PMC9558223, “Staphylococcus aureus is able to generate resistance to novel lipoglycopeptide antibiotic gausemycin A” (Frontiers in Microbiology, 2022).
≈ marks a conversion by molar mass, not a printed value. Like-named read-outs stand apart in the source and are kept apart here. Where no end group is shown, it is not given here.

How the values were obtained:
S. aureus 5812R [1] = assay: microbe, parasite or virus in culture; type: cell-based, Staphylococcus aureus; conditions: for MIC: 24 h; for Cross-resistance of S. aureus 5812R: susceptibility testing of gausemycin A-resistant strain; for Change of MIC / resistance of S. aureus 5812R compared to parent strain S. aureus FDA209P: ratio of MIC for 5812R and FDA209P
Experimental: (§1) Minimal inhibitory concentration (MIC) was determined as previously described in Fuchs et al. ([2000]), following the Clinical and Laboratory Standards Institute (CLSI) guidelines for broth microdilution MIC assay. The bacteria were incubated in a 96-well microtiter plate (Eppendorf, Germany) containing 90 μL of inoculum prepared in growth media at 10^6 CFU/ml with 10 μL of twofold dilutions of the antibiotics. The results were evaluated after 24 h of cultivation at 37 °C. The bacterial growth was assessed by scanning the absorbance data at 600 nm obtained by spectrophotometer (Multiscan GO, Thermo Fisher Scientific, US).

S. aureus FDA209P [2] = assay: microbe, parasite or virus in culture; type: cell-based, Staphylococcus aureus; conditions: broth microdilution (CLSI), 10^6 CFU/ml, 24 h, 37 °C, absorbance at 600 nm
Experimental: as §1

S. aureus FDA209P [3] = assay: Serial passaging in increasing concentrations of antimicrobials; type: cell-based, Staphylococcus aureus; conditions: for The highest concentration of antibiotic allowing growth: Mueller-Hinton II broth (CaCl2 50 mg/L), 37 °C, 24 h
Experimental: Gausemycin A-resistant variant was obtained by serial passaging as described previously (Pollard et al., [2012]). Isolated colonies of S. aureus FDA209P were inoculated into Mueller-Hinton II broth (CaCl2 50 mg/L) containing twofold dilutions of gausemycin A. The cultures were incubated at 37 °C with aeration for 24 h. After incubation, bacterial cells growing at the highest concentration of gausemycin A (below the MIC) were harvested and used for the next passage. The process was repeated for 20 passages. The dynamic of the developing resistance to gausemycin A was evaluated in comparison with daptomycin and ramoplanin. The experiments were performed in two independent series on separate days with three technical replicates each.

S. aureus 5812R [4] = assay: microbe, parasite or virus in culture; type: cell-based, Staphylococcus aureus; conditions: 24 h; for MIC: Staphylococcus aureus, 5812R, read-out: MIC alone
Experimental: The effect of gausemycin A in combination with other antibiotics was evaluated using the checkerboard technique with modifications (Nwabor et al., [2021]). Briefly, 80 μL of diluted bacterial suspension (10^6 CFU/mL) was added to wells containing 10 μL of sub-inhibitory concentrations of gausemycin A and 10 μL of sub-inhibitory concentrations of conventional antibiotics. The plates were incubated for 24 h at 37°C. The effects of the antimicrobial combination were defined according to the fractional inhibitory concentration index (FICI). The ΣFICs were calculated as follows:
where FIC A is the MIC of drug A in the combination/MIC of drug A alone; and FIC B is the MIC of drug B in the combination/MIC of drug B alone. The result was interpreted as FIC ≤ 0.5 = Synergism, FIC > 0.5 to 1 = additivity, FIC >1 to 2 = indifference, and FIC >2 antagonism.

[5] = system: biofilm-embedded staphylococcal cells; conditions: ref Vasilchenko et al., 2020; cited from earlier work
From the text: These lipoglycopeptides were firstly described in 2016 (Lapchinskaya et al., [2016]), and consequently named gausemycins A and B (Tyurin et al., [2021]). Gausemycin A is a macrocyclic peptide containing 14 amino acids, where tyrosine is glycosylated with arabinose, which makes gausemycin A unique among natural peptide antibiotics (Tyurin et al., [2021]). The closest structurally related compounds are depsipeptides (daptomycin, taromycins, and cadazides) and cyclopeptides ( ...

[6] = Staphylococcus aureus, read-out: MIC
[7] = S. aureus 5812R, broth microdilution (CLSI), 10^6 CFU/ml, 37 °C, absorbance at 600 nm

CN(C)[C@@H]1C(O)=C(C(N)=O)C(=O)[C@@]2(O)C(O)=C3C(=O)c4c(O)cccc4[C@@](C)(O)[C@H]3C[C@@H]12 [Tetracycline]
MIC (S. aureus 5812R [1]; Staphylococcus aureus, 5812R): 0.94 µg/mL (≈ 2.12 µM)
Cross-resistance of S. aureus 5812R (S. aureus 5812R [1]): cross-resistance
MIC (S. aureus FDA209P [2]; [6]): 0.47 µg/mL (≈ 1.06 µM)

CCCCCCCCCC(=O)N[C@@H](Cc1c[nH]c2ccccc12)C(=O)N[C@H](CC(N)=O)C(=O)N[C@@H](CC(=O)O)C(=O)N[C@@H]1C(=O)NCC(=O)N[C@@H](CCCN)C(=O)N[C@@H](CC(=O)O)C(=O)N[C@H](C)C(=O)N[C@@H](CC(=O)O)C(=O)NCC(=O)N[C@H](CO)C(=O)N[C@@H]([C@H](C)CC(=O)O)C(=O)N[C@@H](CC(=O)c2ccccc2N)C(=O)O[C@@H]1C [Daptomycin]
The highest concentration of antibiotic allowing growth (S. aureus FDA209P [3]; passage 1): 1.25 µg/mL
The highest concentration of antibiotic allowing growth (S. aureus FDA209P [3]; passage 2): 1.25 µg/mL
The highest concentration of antibiotic allowing growth (S. aureus FDA209P [3]; passage 3): 1.25 µg/mL
The highest concentration of antibiotic allowing growth (S. aureus FDA209P [3]; passage 4): 1.25 µg/mL
The highest concentration of antibiotic allowing growth (S. aureus FDA209P [3]; passage 5): 1.25 µg/mL
The highest concentration of antibiotic allowing growth (S. aureus FDA209P [3]; passage 6): 1.25 µg/mL
The highest concentration of antibiotic allowing growth (S. aureus FDA209P [3]; passage 7): 1.25 µg/mL
The highest concentration of antibiotic allowing growth (S. aureus FDA209P [3]; passage 8): 1.25 µg/mL
The highest concentration of antibiotic allowing growth (S. aureus FDA209P [3]; passage 9): 1.25 µg/mL
The highest concentration of antibiotic allowing growth (S. aureus FDA209P [3]; passage 10): 1.25 µg/mL
The highest concentration of antibiotic allowing growth (S. aureus FDA209P [3]; passage 11): 1.25 µg/mL
The highest concentration of antibiotic allowing growth (S. aureus FDA209P [3]; passage 12): 2.50 µg/mL
The highest concentration of antibiotic allowing growth (S. aureus FDA209P [3]; passage 13): 2.50 µg/mL
The highest concentration of antibiotic allowing growth (S. aureus FDA209P [3]; passage 14): 2.50 µg/mL
The highest concentration of antibiotic allowing growth (S. aureus FDA209P [3]; passage 15): 2.50 µg/mL
The highest concentration of antibiotic allowing growth (S. aureus FDA209P [3]; passage 16): 2.50 µg/mL
The highest concentration of antibiotic allowing growth (S. aureus FDA209P [3]; passage 17): 2.50 µg/mL
The highest concentration of antibiotic allowing growth (S. aureus FDA209P [3]; passage 18): 2.50 µg/mL
The highest concentration of antibiotic allowing growth (S. aureus FDA209P [3]; passage 19): 2.50 µg/mL
The highest concentration of antibiotic allowing growth (S. aureus FDA209P [3]; passage 20): 5.0 µg/mL
MIC (S. aureus 5812R [1]; [7]): 5.0 µg/mL (≈ 3.09 µM)
Change of MIC / resistance of S. aureus 5812R compared to parent strain S. aureus FDA209P (S. aureus 5812R [1]): 4 fold
Cross-resistance of S. aureus 5812R (S. aureus 5812R [1]): cross-resistance
MIC (S. aureus FDA209P [2]): 1.25 µg/mL (≈ 0.771 µM)
MIC alone (S. aureus 5812R [4]; S. aureus 5812R, single antibiotic, 10^6 CFU/mL, 37 °C): 5.0 µg/mL
Inhibition of biofilm-embedded staphylococcal cells [5]: inactive

O=C(O)c1cn(C2CC2)c2cc(N3CCNCC3)c(F)cc2c1=O [Ciprofloxacin]
MIC of Cip in combination (S. aureus 5812R [4]; S. aureus 5812R, combination Cip+ GauA, checkerboard, 37 °C): 0.18 µg/mL

CC1(C)S[C@@H]2[C@H](NC(=O)[C@H](N)c3ccccc3)C(=O)N2[C@H]1C(=O)O [Ampicillin]
MIC (S. aureus 5812R [1]; Staphylococcus aureus, 5812R): 1.25 µg/mL (≈ 3.58 µM)
MIC (S. aureus FDA209P [2]; [6]): 0.16 µg/mL (≈ 0.458 µM)
MIC of Amp in combination (S. aureus 5812R [4]; S. aureus 5812R, combination Amp + GauA, checkerboard, 37 °C): 0.63 µg/mL
MIC (S. aureus 5812R [4]): 1.25 µg/mL

Nisin (ITSISLCTPGCKTGALMGCNMKTATCHCSIHVSK; not fully specified (some residues, bridges); cysteine pairing not given here; UniProt P13068 24-57, looked up)
MIC (S. aureus 5812R [1]; [7]): 7.8 µg/mL
Change of MIC / resistance of S. aureus 5812R compared to parent strain S. aureus FDA209P (S. aureus 5812R [1]): did not differ
Cross-resistance of S. aureus 5812R (S. aureus 5812R [1]): absent
MIC (S. aureus FDA209P [2]): 7.8 µg/mL

Cc1nnc(SCC2=C(C(=O)O)N3C(=O)[C@@H](NC(=O)Cn4cnnn4)[C@H]3SC2)s1 [Cefazolin]
MIC (S. aureus 5812R [1]; Staphylococcus aureus, 5812R): 0.4 µg/mL (≈ 0.88 µM)
Cross-resistance of S. aureus 5812R (S. aureus 5812R [1]): cross-resistance
MIC (S. aureus FDA209P [2]; [6]): 0.2 µg/mL (≈ 0.44 µM)

CNC(C)C1CCC(N)C(OC2C(N)CC(N)C(OC3OCC(C)(O)C(NC)C3O)C2O)O1 (stereo not shown) [Gentamicin]
MIC (S. aureus 5812R [1]; Staphylococcus aureus, 5812R): 1.56 µg/mL (≈ 3.27 µM)
Change of MIC / resistance of S. aureus 5812R compared to parent strain S. aureus FDA209P (S. aureus 5812R [1]): 7.8 fold
Cross-resistance of S. aureus 5812R (S. aureus 5812R [1]): cross-resistance
MIC (S. aureus FDA209P [2]; [6]): 0.2 µg/mL (≈ 0.419 µM)
MIC of Gen in combination (S. aureus 5812R [4]; S. aureus 5812R, combination Gen+ GauA, checkerboard, 37 °C): 0.75 µg/mL
MIC (S. aureus 5812R [4]): 1.56 µg/mL

CN[C@H](CC(C)C)C(=O)N[C@H]1C(=O)N[C@@H](CC(N)=O)C(=O)N[C@H]2C(=O)N[C@H]3C(=O)N[C@H](C(=O)N[C@H](C(=O)O)c4cc(O)cc(O)c4-c4cc3ccc4O)[C@H](O)c3ccc(c(Cl)c3)Oc3cc2cc(c3O[C@@H]2O[C@H](CO)[C@@H](O)[C@H](O)[C@H]2O[C@H]2C[C@](C)(N)[C@H](O)[C@H](C)O2)Oc2ccc(cc2Cl)[C@H]1O [Vancomycin]
MIC (S. aureus 5812R [1]; [7]): 0.78 µg/mL (≈ 0.538 µM)
Change of MIC / resistance of S. aureus 5812R compared to parent strain S. aureus FDA209P (S. aureus 5812R [1]): did not differ
Cross-resistance of S. aureus 5812R (S. aureus 5812R [1]): absent
MIC (S. aureus FDA209P [2]): 0.78 µg/mL (≈ 0.538 µM)

Ramoplanin
The highest concentration of antibiotic allowing growth (S. aureus FDA209P [3]; passage 1): 3.12 µg/mL
The highest concentration of antibiotic allowing growth (S. aureus FDA209P [3]; passage 2): 6.25 µg/mL
The highest concentration of antibiotic allowing growth (S. aureus FDA209P [3]; passage 3): 6.25 µg/mL
The highest concentration of antibiotic allowing growth (S. aureus FDA209P [3]; passage 4): 12.5 µg/mL
The highest concentration of antibiotic allowing growth (S. aureus FDA209P [3]; passage 5): 50 µg/mL
The highest concentration of antibiotic allowing growth (S. aureus FDA209P [3]; passage 6): 50 µg/mL
The highest concentration of antibiotic allowing growth (S. aureus FDA209P [3]; passage 7): 50 µg/mL
The highest concentration of antibiotic allowing growth (S. aureus FDA209P [3]; passage 8): 100 µg/mL
The highest concentration of antibiotic allowing growth (S. aureus FDA209P [3]; passage 9): 100 µg/mL
The highest concentration of antibiotic allowing growth (S. aureus FDA209P [3]; passage 10): 100 µg/mL
The highest concentration of antibiotic allowing growth (S. aureus FDA209P [3]; passage 11): >100 µg/mL
The highest concentration of antibiotic allowing growth (S. aureus FDA209P [3]; passage 12): >100 µg/mL
The highest concentration of antibiotic allowing growth (S. aureus FDA209P [3]; passage 13): >100 µg/mL
The highest concentration of antibiotic allowing growth (S. aureus FDA209P [3]; passage 14): >100 µg/mL
The highest concentration of antibiotic allowing growth (S. aureus FDA209P [3]; passage 15): >100 µg/mL
The highest concentration of antibiotic allowing growth (S. aureus FDA209P [3]; passage 16): >100 µg/mL
The highest concentration of antibiotic allowing growth (S. aureus FDA209P [3]; passage 17): >100 µg/mL
The highest concentration of antibiotic allowing growth (S. aureus FDA209P [3]; passage 18): >100 µg/mL
The highest concentration of antibiotic allowing growth (S. aureus FDA209P [3]; passage 19): >100 µg/mL
The highest concentration of antibiotic allowing growth (S. aureus FDA209P [3]; passage 20): >100 µg/mL
Number of passages within which resistance was formed (S. aureus FDA209P [3]; serial passages with sub-inhibitory concentrations): ≤ 10 passages
MIC (S. aureus 5812R [1]; [7]): 3.12 µg/mL
Change of MIC / resistance of S. aureus 5812R compared to parent strain S. aureus FDA209P (S. aureus 5812R [1]): did not differ
Cross-resistance of S. aureus 5812R (S. aureus 5812R [1]): absent
MIC (S. aureus FDA209P [2]): 3.12 µg/mL
